Experiments:
human ERα = biological target: T1, human ERα (Homo sapiens, UniProt P03372); experiment: Radioligand binding competition with [3H]-17β-estradiol, ERα; conditions: human ERα ligand binding domain, read-out: ER-α IC50
T1 construct: amino acids M250-V595 of human ERα; His (N); made in house; host or cells: E. coli BL21(DE3), clarified lysate
T1 sequence (P03372 250-595): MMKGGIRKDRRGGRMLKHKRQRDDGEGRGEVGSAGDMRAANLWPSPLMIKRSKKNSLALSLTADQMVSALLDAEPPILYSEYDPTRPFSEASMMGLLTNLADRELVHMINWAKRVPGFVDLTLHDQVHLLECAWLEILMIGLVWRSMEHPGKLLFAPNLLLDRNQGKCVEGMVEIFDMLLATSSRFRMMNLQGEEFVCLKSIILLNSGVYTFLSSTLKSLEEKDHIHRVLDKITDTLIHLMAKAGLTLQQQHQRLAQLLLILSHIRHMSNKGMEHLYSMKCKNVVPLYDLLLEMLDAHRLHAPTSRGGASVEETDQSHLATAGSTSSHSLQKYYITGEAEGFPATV

human ERβ = biological target: T2, human ERβ (Homo sapiens, UniProt Q92731); experiment: Radioligand binding competition with [3H]-17β-estradiol, ERβ; conditions: human ERβ ligand binding domain, read-out: ER-β IC50
T2 construct: M214-Q530 of human ERβ; Flag (C); made in house; host or cells: E. coli BL21(DE3), clarified lysate

[1] = system: progesterone receptor mRNA in the preoptic area of the rat brain; experiment: Progesterone receptor mRNA regulation test procedure; assay type: in vivo; conditions: 10 mg/kg, vehicle 4.3 ± 1.5
Excerpt: This test procedure can be used to evaluate the estrogenic or antiestrogenic activity of compounds from this invention [Shughrue, et al., Endocrinology 138: 5476-5484 (1997)].

129 SvE mice = experiment: Mouse uterotrophic test procedure (Procedure 2); assay type: in vivo; conditions: 50 mg/kg subcutaneously, 4 days, immature mice
Experimental: Procedure 2: Sexually immature (18 days of age) 129 SvE mice were obtained from Taconic and provided unrestricted access to a casein-based diet (Purina Mills 5K96C) and water. On day 22, 23, 24 and 25 the mice were dosed subcutaneously with compound or vehicle (corn oil). There were six mice/group and they were euthanized approximately 6 hours after the last injection by CO2 asphyxiation and pneumothorax. Uteri were removed and weighed after trimming associated fat and expressing any internal fluid. The following results (Table (2)) were obtained for representative compounds from the invention.

casein kinase II mRNA = experiment: Mammary end bud test procedure (rat mammotrophic assay); assay type: in vivo; conditions: 0.1 mg/kg sc + progesterone 30 mg/kg; ovariectomized rats; vehicle 1.61 ± 0.36
Experimental: Estrogens are required for full ductal elongation and branching of the mammary ducts, and the subsequent development of lobulo-alveolar end buds under the influence of progesterone. In this test procedure, the mammotrophic activity of selected compounds of the invention was evaluated according to the following standard pharmacological test procedure. Twenty-eight day old Sprague-Dawley rats (Taconic Farms, Germantown, N.Y.) were ovariectomized and rested for nine days. […] For the final three days, rats were also dosed subcutaneously with progesterone (30 mg/kg). On the seventh day, rats were euthanised and a mammary fat pad excised. This fat pad was analyzed for casein kinase II mRNA as a marker of end bud proliferation. Casein kinase II mRNA was anlayzed by real-time RT-PCR. Briefly, RNA was isolated following Trizol (GibcoBRL, Grand Island, N.Y.) according to the manufacture's directions, Samples were treated with DNAse I using DNA-free kit (Ambion), and casein kinase II mRNA levels were measured by real-time RT-PCR using the Taqman Gold procedure (PE Applied Biosystems). […] Casein kinase II mRNA levels were normalized to 18s ribosomal RNA contained within each sample reaction using primers and probe supplied by PE Applied Biosystems. The following results were obtained for an example of the invention (Table (4)).

[2] = second experiment, vehicle 10.3 ± 0.8

T2 sequence (Q92731 214-530): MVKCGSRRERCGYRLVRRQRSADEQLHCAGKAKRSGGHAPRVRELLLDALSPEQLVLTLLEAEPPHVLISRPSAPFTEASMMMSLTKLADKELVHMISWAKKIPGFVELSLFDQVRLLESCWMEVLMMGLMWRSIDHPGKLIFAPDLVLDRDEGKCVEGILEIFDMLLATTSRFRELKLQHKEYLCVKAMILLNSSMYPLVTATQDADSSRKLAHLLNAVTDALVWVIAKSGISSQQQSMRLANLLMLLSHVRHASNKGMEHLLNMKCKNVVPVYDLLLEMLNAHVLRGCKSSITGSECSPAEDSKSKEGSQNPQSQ

SMILES	IC50 (human ERα) [µM]	IC50 (human ERβ) [µM]	melting point	Progesterone receptor mRNA (mean ± stdev) [1] [arbitrary units]	mean uterine weight ± SEM (129 SvE mice; [2]) [mg]	Casein kinase II mRNA/18S rRNA (mean ± SEM) (casein kinase II mRNA)	mean uterine weight ± SEM (129 SvE mice; first experiment, vehicle 9.5 ± 0.3) [mg]
COc1c(Cl)c2c(c3ccc(O)cc13)OCc1cc(O)ccc1-2 [Example 1m, 11-Chloro-12-methoxy-6H-dibenzo[c,h]chromene-2,8-diol]	0.0104	0.00027					
Oc1ccc2c(c1)COc1c-2ccc2c(O)ccc(Cl)c12 [Example 1z, 4-chloro-6H-dibenzo[c,h]chromene-1,8-diol]	0.01	0.0008					
Oc1ccc2c(c1)COc1c-2ccc2c(Cl)c(O)ccc12 [Example 1g, 1-Chloro-6H-dibenzo[c,h]chromene-2,8-diol]	0.074	0.0027	216 to 218 °C				
N#Cc1cc2c(c3ccc(O)c(Cl)c13)OCc1cc(O)ccc1-2 [Example 1f, 1-Chloro-2,8-dihydroxy-6H-dibenzo[c,h]chromene-12-carbonitrile]	0.156	0.0035	> 250 °C				
Oc1ccc2c(c1)COc1c-2ccc2cc(O)ccc12 [Example 1a, 6H-Dibenzo[c,h]chromene-2,8-diol]	0.074	0.0033	248 to 252 °C (dec.)				
COc1cc2c(c3ccc(O)cc13)OCc1cc(O)ccc1-2 [Example 1l, 12-Methoxy-6H-dibenzo[c,h]chromene-2,8-diol]	0.147	0.016	224 °C (dec.)				
Oc1ccc2c3c(cc(Br)c2c1)-c1cc(F)c(O)cc1CO3 [Example 1j, 12-Bromo-9-fluoro-6H-dibenzo[c,h]chromene-2,8-diol]	0.077	0.002	194 to 197 °C				
Oc1ccc2c(c1)COc1c-2ccc2c(O)cccc12 [Example 1u, 6H-dibenzo[c,h]chromene-1,8-diol]	0.017	0.0014	213 to 214 °C				
C=Cc1cc2c(c3ccc(O)cc13)OCc1cc(O)ccc1-2 [Example 1o, 12-Vinyl-6H-dibenzo[c,h]chromene-2,8-diol]	0.081	0.0023	> 220 °C				
Oc1ccc2c(c1)COc1c-2cc(-c2cccs2)c2cc(O)ccc12 [Example 1r, 12-Thien-2-yl-6H-dibenzo[c,h]chromene-2,8-diol]	0.217	0.0483	191 to 193 °C				
CCc1cc2c(c3ccc(O)cc13)OCc1cc(O)ccc1-2 [Example 1p, 12-Ethyl-6H-dibenzo[c,h]chromene-2,8-diol]	0.044	0.0029	184 to 192 °C				
Oc1ccc2c(c1)COc1c-2ccc2c(O)c(Cl)ccc12 [Example 1y, 2-Chloro-6H-dibenzo[c,h]chromene-1,8-diol]	0.0176	0.00165	181 to 182 °C (dec.)				
CCCCc1cc2c(c3ccc(O)cc13)OCc1cc(O)ccc1-2 [Example 1s, 12-Butyl-6H-dibenzo[c,h]chromene-2,8-diol]	0.071	0.003	118 to 121 °C				
Oc1ccc2c(c1)COc1c-2cc(-c2ccsc2)c2cc(O)ccc12 [Example 1q, 12-Thien-3-yl—6H-dibenzo[c,h]chromene-2,8-diol]	0.154	0.0292	179 to 182 °C				
Oc1ccc2c(c1)COc1c-2cc(Cl)c2c(O)cccc12 [Example 1v, 12-Chloro-6H-dibenzo[c,h]chromene-1,8-diol]	0.0045	0.0009					
Cc1cc2c(c3ccc(O)cc13)OCc1cc(O)ccc1-2 [Example 1n, 12-Methyl-6H-dibenzo[c,h]chromene-2,8-diol]	0.102	0.0027	220 to 224 °C (dec.)				
Oc1ccc2c(c1)COc1c-2cc(Br)c2c(O)cccc12 [Example 1w, 12-Bromo-6H-dibenzo[c,h]chromene-1,8-diol]	0.01	0.0014					
Oc1ccc2c(c1)COc1c-2cc(Cl)c2cc(O)ccc12 [Example 1i, 12-Chloro-6H-dibenzo[c,h]chromene-2,8-diol]	0.017	0.0011	212 to 216 °C (dec.)	57.5 ± 14.0	28.9 ± 2.0		
Oc1ccc2c(c1)COc1c-2ccc2ccccc12 [Example 1c, 6H-Dibenzo[c,h]chromen-8-ol]	0.46	0.0797	192 to 194 °C				
CCCc1cc2c(c3ccc(O)cc13)OCc1cc(O)ccc1-2 [Example 1t, 12-Propyl-6H-dibenzo[c,h]chromene-2,8-diol]	0.16	0.011	86 to 95 °C				
Oc1ccc2c3c(cc(Cl)c2c1)-c1cc(F)c(O)cc1CO3 [Example 1k, 12-Chloro-9-fluoro-6H-dibenzo[c,h]chromene-2,8-diol]	0.027	0.002	215 to 220 °C (dec.)				
N#Cc1cc2c(c3ccc(O)cc13)OCc1cc(O)c(F)cc1-2 [Example 1e, 9-fluoro-2,8-dihydroxy-6H-dibenzo[c,h]chromene-12-carbonitrile]	1.23	0.019	> 250 °C				
Oc1ccc2c(c1)COc1c-2cc(Br)c2cc(O)ccc12 [Example 1h, 12-Bromo-6H-dibenzo[c,h]chromene-2,8-diol]	0.026	0.0009	178 to 180 °C (dec.)				
N#Cc1cc2c(c3cccc(O)c13)OCc1cc(O)ccc1-2 [Example 1x, 1,8-Di hydroxy-6H-di benzo[c,h]chromene-12-carbonitrile]	0.086	0.0015					
C[C@]12CC[C@@H]3c4ccc(O)cc4CC[C@H]3[C@@H]1CC[C@@H]2O [17β-estradiol, reference compound]					45.3 ± 1.9	39.0 ± 5.4	46.7 ± 2.5
Oc1ccc2c3c(ccc2c1)-c1cc(F)c(O)cc1CO3 [Example 1b, 9-Fluoro-6H-dibenzo[c,h]chromene-2,8-diol]	0.02	0.0018	230 to 231 °C (dec.)				

Source: US6723747B2, “Substituted 6H-DiBenzo[c,h]chromenes as estrogenic agents” (Wyeth, priority 2001, dated 2004)
